Assays:
[1] = test system: GPX4-KO/FSP1-OE HT1080 cells; assay: Viability of FSP1-dependent GPX4-KO cells with serial dilutions of CPBA, no FINs; assay type: cell-based, human; conditions: GPX4-KO, FSP1-dependent cells treated with CPBA
Experimental: The following HT1080 fibrosarcoma cell lines were generated using CRISPR/Cas9 technology, as previously described (Doll et al., 2019): HT1080 GPX4-knockout (KO) cells (maintained in the presence of 100 μM α-tocopherol); HT1080 GPX4 knockout cells overexpressing FSP1 (GPX4-KO/FSP1-OE); GPX4-KO cells overexpressing FSP1 and re-expressing GPX4 (GPX4-KO/FSP1-OE/GPX4-OE); HT1080 FSP1-WT or FSP1-KO cells; and HT1080 FSP1-KO cells reconstituted with either FSP1-WT or FSP1-G2A. LOX-IMVI (BRAF V600E heterozygous human melanoma cells) expressing either the Venus mock vector or FSP1-Venus (Doll et al., 2019) were grown in RPMI-1640 supplemented with 10% FCS, 2 mM L-glutamine and Pen/Strep.
Next, we tested the effect of CPBA on ferroptotic cell death in GPX4-deficient HT1080 cells whose survival depends on the expression of FSP1 in order to suppress ferroptosis in the absence of GPX4. GPX4 knockout cells overexpressing FSP1 (GPX4-KO/FSP1-OE), or GPX4-KO cells overexpressing FSP1 and re-expressing GPX4 (GPX4-KO/FSP1-OE/GPX4-OE) were incubated with serial dilutions of CPBA. Note that no ferroptosis inducers (FINs) were added. Protein expression was confirmed by Western Blot as described above (see FIG. 11).

HT1080 cells = assay: Lipid droplet staining with BODIPY 493/503; assay type: cell-based, human; conditions: CPBA 100 μM; T863 10 μM and PF-06424439 5 μM; 16 h
Experimental: HT1080 cells were seeded on glass coverslips (15,000 cells per well of 12-well plate) in complete DMEM, and incubated for 16 h with 100 μM CPBA or with 0.1% of the DMSO solvent control, in the absence or presence of inhibitors of DGAT1 and DGAT2 (10 μM T863/iDGAT1; 5 μM PF-06424439/iDGAT2). Cells were fixed with 4% para-formaldehyde, lipid droplets were stained with the neutral lipid droplet stain BODIPY 493/503 (2 μM, 30 min), and nuclei were counterstained with 4′,6-diamidino-2-phenylindole (DAPI). Cells were mounted with Immu-Mount (Fisher Scientific), and imaged by fluorescence microscopy on a THUNDER imager (THUNDER Imager Live Cell & 3D Cell Culture & 3D Assay system, Leica DMI8; Leica Microsystems), using a 63× objective.
We next investigated the impact of CPBA on triglyceride levels and ferroptosis sensitivity by first imaging lipid droplets with the neutral lipid stain BODIPY 493/503.
The diglyceride acyltransferase isoforms 1 and 2 (DGAT1, DGAT2) are required to catalyze the formation of triglycerides from diacylglycerol and acyl-CoA.

| SMILES | prevention of CPBA-induced cell death [1] | lipid droplets (HT1080 cells) |
| --- | --- | --- |
| Clc1cccc(CN=C2Nc3ccccc3NC23CCNCC3)c1 [liproxstatin-1, reference compound] | cell death is prevented by liproxstatin-1 |  |
| CC1(C)Oc2ncnc(N)c2N=C1c1ccc([C@H]2CC[C@H](CC(=O)O)CC2)cc1 [T863] |  | blocked lipid droplet formation both in DMSO- and in CPBA-treated cells |
| CS(=O)(=O)O.O=C([C@@H]1CCCN(c2ccc3[nH]c(C4(n5cc(Cl)cn5)CC4)nc3n2)C1)N1CCCC1 [PF-06424439] |  | blocked lipid droplet formation both in DMSO- and in CPBA-treated cells |
